ChEMBL document CHEMBL1201862, “PubChem BioAssay data set” (2004)
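Test compounds were applied to cells in 96-well plates for 48 hours at 5 doses. At the GI50, growth is halved.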 The source made the active and inactive calls. Cut-off read from the data, not from the text of the source: active = GI50 up to about 1.1 µM and inactive = higher.

How the values were obtained:
Experiment in all cases: NCI tumour cell line growth inhibition, 48 h
M14 = test system: M14
A498 = test system: A498
RXF 393 = test system: RXF 393
786-0 = test system: 786-0
RPMI-8226 = test system: RPMI-8226
SK-OV-3 = test system: SK-OV-3
HCT-15 = test system: HCT-15
UACC-62 = test system: UACC-62
TK-10 = test system: TK-10
HOP-62 = test system: HOP-62
NCI-H226 = test system: NCI-H226
EKVX = test system: EKVX
OVCAR-4 = test system: OVCAR-4
DMS-114 = test system: DMS-114
HOP-92 = test system: HOP-92
Malme-3M = test system: Malme-3M
MCF7 = test system: MCF7

| SMILES | GI50 (M14) | GI50 (A498) | GI50 (RXF 393) | GI50 (786-0) | GI50 (RPMI-8226) | GI50 (SK-OV-3) | GI50 (HCT-15) [µM] | GI50 (UACC-62) | GI50 (TK-10) | GI50 (HOP-62) | GI50 (NCI-H226) | GI50 (EKVX) | GI50 (OVCAR-4) | GI50 (DMS-114) | GI50 (HOP-92) | GI50 (Malme-3M) | GI50 (MCF7) |
| --- | --- | --- | --- | --- | --- | --- | --- | --- | --- | --- | --- | --- | --- | --- | --- | --- | --- |
| O=C(c1ccccc1)c1cc(Cl)ccc1NCn1nnc2ccccc21 | 88.7 µM (inactive) | 65.2 µM (inactive) | 30.3 µM (inactive) | > 100 µM (inactive) | 41.6 µM (inactive) | 47.8 µM (inactive) | 42.8 | > 100 µM (inactive) | 81.1 µM (inactive) | > 100 µM (inactive) | > 100 µM (inactive) | > 100 µM (inactive) | 9.46 µM (inactive) | 31.5 µM (inactive) | 91.4 µM (inactive) | – | – |
| O=S(O)CCCSSSCCCS(=O)O | > 100 µM (inactive) | > 100 µM (inactive) | > 100 µM (inactive) | – | – | > 100 µM (inactive) | – | > 100 µM (inactive) | > 100 µM (inactive) | > 100 µM (inactive) | – | > 100 µM (inactive) | > 100 µM (inactive) | > 100 µM (inactive) | – | > 100 µM (inactive) | – |
| C=C1CC(OC)(C(OC)C(=O)N[C@H]2OCO[C@H]3C2O[C@H](C[C@@H](COC)OC)C(C)(C)C3OC)O[C@H](C)[C@@H]1C (stereo not given in full) | – | 1.03 µM (active) | 0.995 µM (active) | – | 0.111 µM (active) | 1.06 µM (active) | 0.8 | 1.01 µM (active) | – | 1.04 µM (active) | 1.16 µM (inactive) | – | 0.733 µM (active) | 1.22 µM (inactive) | 0.521 µM (active) | – | 1.4 µM (inactive) |
| C=C[C@@]12CCCCC1C/C(=C(/O)OC)C(=O)C2 (stereo not given in full) | > 100 µM (inactive) | – | > 100 µM (inactive) | > 100 µM (inactive) | > 100 µM (inactive) | > 100 µM (inactive) | – | > 100 µM (inactive) | > 100 µM (inactive) | > 100 µM (inactive) | > 100 µM (inactive) | > 100 µM (inactive) | > 100 µM (inactive) | > 100 µM (inactive) | > 100 µM (inactive) | – | – |
| CC(=O)NC1=C(C)C(=O)c2c(nc3n2CCC3OC(=O)c2ccccc2)C1=O (stereo not given) | 1.98 µM (inactive) | 12.7 µM (inactive) | 3.79 µM (inactive) | 4.3 µM (inactive) | 2.04 µM (inactive) | 2.03 µM (inactive) | – | 1.92 µM (inactive) | 6.43 µM (inactive) | 2.34 µM (inactive) | 2.05 µM (inactive) | 1.63 µM (inactive) | 1.52 µM (inactive) | 0.805 µM (active) | 1.9 µM (inactive) | 1.64 µM (inactive) | – |
| CC(=O)O[C@H]1CC[C@@]2(C)[C@H](CC[C@@H]3[C@@H]2CC[C@]2(C)[C@@H](c4ccc(=O)oc4)C[C@H]4O[C@]342)C1 | – | 0.69 µM (active) | 0.147 µM (active) | – | 0.664 µM (active) | 1.83 µM (inactive) | 1.08 | 1.05 µM (active) | – | 0.521 µM (active) | 2.28 µM (inactive) | 0.646 µM (active) | 0.675 µM (active) | 0.119 µM (active) | 0.92 µM (active) | 0.571 µM (active) | 1.27 µM (inactive) |
| COc1cccc(/C=C(/C(=O)O)c2cc(OC)c(OC)c(OC)c2)c1 | > 100 µM (inactive) | > 100 µM (inactive) | 45.2 µM (inactive) | > 100 µM (inactive) | > 100 µM (inactive) | – | > 100 | > 100 µM (inactive) | > 100 µM (inactive) | > 100 µM (inactive) | > 100 µM (inactive) | > 100 µM (inactive) | > 100 µM (inactive) | > 100 µM (inactive) | 92.3 µM (inactive) | > 100 µM (inactive) | – |
